In the test the target is MAPK14 (human) (UniProt Q16539). Briefly: Inhibition of MAPK14 Kinase Assay.
Sequence of MAPK14 (human) (Q16539 whole entry, looked up): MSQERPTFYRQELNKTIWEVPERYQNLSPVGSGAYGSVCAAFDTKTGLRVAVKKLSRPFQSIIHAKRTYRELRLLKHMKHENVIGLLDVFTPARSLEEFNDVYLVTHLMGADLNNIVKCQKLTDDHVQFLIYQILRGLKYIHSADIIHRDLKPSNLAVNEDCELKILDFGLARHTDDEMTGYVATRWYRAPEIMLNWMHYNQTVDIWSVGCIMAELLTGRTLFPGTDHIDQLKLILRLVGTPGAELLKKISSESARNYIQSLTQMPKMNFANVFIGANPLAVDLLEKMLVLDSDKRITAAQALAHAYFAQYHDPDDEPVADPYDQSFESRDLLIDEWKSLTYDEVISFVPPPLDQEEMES
The term IC50 denotes the midpoint of a concentration-inhibition curve. Read a low IC50 as inhibition by little substance. `CSc1nc(-c2ccc(F)cc2)c(-c2ccncc2)n1NC(=O)Cc1ccc(F)cc1` returned an IC50 of 0.244 µM. Under `CSc1nc(-c2ccc(F)cc2)c(-c2ccncc2)n1NC(=O)C(C)c1ccccc1` (stereo not given) stands 0.095 µM; under `Cn1nc(-c2ccc(F)cc2)c(-c2ccncc2)c1NC(=O)Cc1ccc(F)cc1`, 0.029 µM; under `CSc1nc(-c2ccc(F)cc2)c(-c2ccncc2)n1NC(=O)c1cc2ccccc2o1`, 0.873 µM. `CSc1nc(-c2ccc(F)cc2)c(-c2ccncc2)n1NC(=O)c1ccc(C)c(F)c1` came in with an IC50 of 0.242 µM. Molecule `O=C(Cc1ccc(F)cc1)Nc1onc(-c2ccc(F)cc2)c1-c1ccncc1` returned an IC50 of 0.113 µM. Against the preceding molecule, the IC50 is about 2.1-fold lower.

The molecule `CSc1nc(-c2ccc(F)cc2)c(-c2ccncc2)n1NC(=O)c1ccco1` returned an IC50 of 0.308 µM. Under `CSc1nc(-c2ccc(F)cc2)c(-c2ccncc2)n1NC(=O)c1ccccc1` stands 0.314 µM. `CSc1nc(-c2ccc(F)cc2)c(-c2ccncc2)n1NC(=O)Nc1ccc(F)cc1` had a 50% inhibitory concentration (IC50) of 0.145 µM. With `CSc1nc(-c2ccc(F)cc2)c(-c2ccncc2)n1N`, the IC50 was found to be 1.88 µM. Consider `CSc1nc(-c2ccc(F)cc2)c(-c2ccncc2)n1NC(C)=O`, for which the IC50 is 0.84 µM. This IC50 lies about 2.2-fold lower than the previous one. Under `CSc1nc(-c2ccc(F)cc2)c(-c2ccncc2)n1NC(=O)COc1ccccc1` stands 1.08 µM; under `CSc1nc(-c2ccc(F)cc2)c(-c2ccncc2)n1NC(=O)Cc1ccccc1Cl`, 0.058 µM. Molecule `Cn1nc(-c2ccc(F)cc2)c(-c2ccncc2)c1NC(=O)Cc1ccccc1Cl` registered an IC50 of 0.071 µM.

Regarding `CC(C(=O)Nc1onc(-c2ccc(F)cc2)c1-c1ccncc1)c1ccccc1` (stereo not given), the IC50 came to 0.107 µM.

The values are drawn from the Kinase Knowledgebase extract (Sharma et al. 2016).
